{
  "source": "patent EP1296995B1",
  "about": "“3'-PRODRUGS OF 2'-DEOXY-BETA-L-NUCLEOSIDES” (priority 2000, dated 2001)",
  "key": {"HIV-1": {"tested_on": "HIV-1", "conditions": "read-out: EC50 HIV-1 (PBMC)"}, "VZV": {"tested_on": "VZV", "experiment": "Antiviral panel: VZV in HFF", "type": "cell-based"}, "2.2.15": {"tested_on": "2.2.15", "experiment": "Cytotoxicity in 2.2.15 cells"}, "WHV [1]": {"tested_on": "WHV", "experiment": "Woodchuck model of chronic hepatitis B infection, 28 days", "type": "in vivo, woodchucks"}, "EBV": {"tested_on": "EBV", "experiment": "Antiviral panel: EBV in Daudi", "type": "cell-based"}, "[2]": {"conditions": "monkey, in vivo, 10 mg/kg"}, "HBV [3]": {"tested_on": "HBV", "experiment": "Antiviral activity against HBV in 2.2.15 cells (reduction of HBV DNA)"}, "[4]": {"tested_on": "Salmonella typhimurium strains TA98, TA100, TA1535, and TA1537 and escherichia coli strain WP2uvrA", "experiment": "S. typhimurium and E. coli plate incorporation mutation assay", "type": "cell-based", "method": "L-dC was tested for its potential to cause mutation at the histidine operon of Salmonella typhimurium strains TA98, TA100, TA1535, and TA1537 and at the tryptophan opeton of escherichia coli strain WP2uvrA. L-dC at concentrations of […] plus positive and negative controls were tested. […] After incubation for approximately 68 hours, L-dC and controls were evaluated for the number of revertants per plate and integrity of the background microcolony lawn."}, "HepG2 cells": {"tested_on": "HepG2 cells", "experiment": "in vitro", "text": "(§1) These studies included analysis of lactic acid production, mtDNA content and determination of changes in morphology (e.g., loss of cristae, matrix dissolution and swelling, and lipid droplet formation) of mitochondrial ultrastructure."}, "WHV [5]": {"tested_on": "WHV", "experiment": "Woodchuck model, twelve-week study", "type": "in vivo, woodchucks", "conditions": "1 mg/kg/day", "method": "WHV DNA levels were determined by quantitative PCR."}, "in vivo [6]": {"experiment": "in vivo", "conditions": "monkey, po"}, "in vitro [7]": {"experiment": "in vitro", "conditions": "human, plasma"}, "in vivo [8]": {"experiment": "in vivo", "conditions": "monkey", "text": "[…]. […] Clinical observations were documented daily. Blood samples for hematology and serum chemistries were collected and body weight measured before treatment on Days 1, 4, 7, 10, and 14, and before necropsy on Day 17. After completion of Day 17 evaluations, all animals were euthanized and a complete necropsy performed, including macroscopic examination and comprehensive tissue collection."}, "in vivo [9]": {"experiment": "in vivo", "conditions": "rat, po"}, "physchem": {"experiment": "physchem", "method": "(§2) To 1 mL of this solution, 1 mL of octanol-1 (B) saturated with 0.02 M phosphate buffer solution (A) was added. The resultant mixture was shaken and centrifuged; three samples from each phase was collected and analyzed by HPLC, as shown in Table 10. […]\nas §2, with “The solution was then saturated with octanol-1 (B). To” for “To”, “11.” for “10.”"}, "[10]": {"experiment": "Log P' study, MilliQ water / octanol-1", "type": "physicochemical", "conditions": "for P' (B/A'): MilliQ water pH 6.5 (A') / octanol-1 (B), Study 1 and Study 2"}, "in vivo [11]": {"experiment": "in vivo", "set-up": "species or system cynomologus monkeys (macaca fascicularis)", "conditions": "cynomolgus monkey", "text": "The drug was quantitated in plasma and urine with a liquid chromatography-mass spectrometry (LC-MS) technique."}, "in vitro [12]": {"experiment": "in vitro", "conditions": "human, plasma", "remark": "listed apart in the source"}, "[13]": {"experiment": "Oral bioavailability of L-dC via dival-L-dC (HPLC)", "conditions": "cynomolgus monkey, urine, 10 mg/kg", "text": "The drug was quantitated in plasma and in urine using HPLC analysis."}, "in vivo [14]": {"experiment": "in vivo", "conditions": "rat, po", "method": "Clinical observations were documented once daily. Body weights were documented before dosing on Days 1, 8, 15, 22, and 28 and before necropsy on Day 29. Food consumption was documented weekly. Blood samples for hematology and serum chemistries also were collected before necropsy on Day 29.\nToxicokinetics. An additional 54 animals (27 males and 27 females) had samples collected for pharmacokinetic analyses on Days 1 and 28. […] Analysis of the 500 mg/kg group is in progress.", "remark": "listed apart in the source"}, "in vivo [15]": {"experiment": "in vivo", "conditions": "monkey, po", "remark": "listed apart in the source"}, "HBV [16]": {"tested_on": "HBV", "conditions": "human, 2.2.15 cells"}, "in vitro [17]": {"experiment": "in vitro", "conditions": "human, bone marrow cfu-gm"}, "in vitro [18]": {"experiment": "in vitro", "conditions": "human, hepg2 cells", "text": "as §1"}, "in vitro [19]": {"experiment": "in vitro", "conditions": "human, bone marrow bfu-e"}},
  "note": "“Also recorded” adds a separate entry of the source. Structures can show the parent of a compound that is named as a salt. Where two headings read alike, the source gives them in different places.",
  "data": [
    {"compound": "Nc1ccn([C@@H]2C[C@@H](O)[C@H](CO)O2)c(=O)n1", "note": "[L-dC, 2'-deoxy-β-L-cytidine]", "values": [
      {"measurement": "EC50", "setting": "HIV-1", "value": "> 200", "unit": "µM"},
      {"measurement": "EC50 VZV (HFF)", "setting": "VZV", "value": 18.6, "unit": "µg/mL"},
      {"measurement": "CC50", "setting": "2.2.15; 2.2.15", "value": "> 2000", "unit": "µM"},
      {"measurement": "CC50", "setting": "2.2.15; 2.2.15 cells, 50% inhibition of neutral red dye uptake, combination study", "value": "3000 ± 96", "unit": "µM"},
      {"measurement": "body weight", "setting": "WHV [1]; compared to control animals, 28 days 0.01-10 mg/kg/day", "value": "no weight loss"},
      {"measurement": "toxicity", "setting": "WHV [1]; four-week treatment phase and eight-week follow-up, 0.01-10 mg/kg/day orally", "value": "no drug-related toxicity; also recorded: No toxicity was observed"},
      {"measurement": "EC50 EBV (Daudi)", "setting": "EBV", "value": ">50", "unit": "µg/mL"},
      {"measurement": "AUC(0-t)", "setting": "[2]; iv", "value": 81.1, "unit": "µM·h"},
      {"measurement": "AUC(0-t)", "setting": "[2]; po", "value": 13.7, "unit": "µM·h"},
      {"measurement": "S.I. (CC50/EC90)", "setting": "HBV [3]; 2.2.15 cells", "value": "2,727"},
      {"measurement": "HBV replication returned to 50% of pretreatment levels", "setting": "HBV [3]; viral rebound after drug withdrawal, 2.2.15 cells", "value": "≤ 18", "unit": "day post-treatment"},
      {"measurement": "mutagenicity", "setting": "[4]; concentrations up to 5000 µg/plate", "value": "not mutagenic"},
      {"measurement": "mutagenicity", "setting": "[4]; concentrations up to 5000 mg/plate, with and without rat liver S-9", "value": "no evidence of mutagenicity"},
      {"measurement": "Lipid Droplet Formation", "setting": "HepG2 cells", "value": "negative"},
      {"measurement": "CC50", "setting": "HepG2 cells; HepG2 cells, after 14 days of treatment", "value": "> 2000", "unit": "µM"},
      {"measurement": "toxicity", "setting": "WHV [5]; 12-week treatment phase and 12-week follow-up", "value": "no drug-related toxicity"},
      {"measurement": "end-of-treatment liver biopsies", "setting": "WHV [5]; 12 weeks", "value": "no histomorphological evidence of fatty changes (microvesicular steatosis); also recorded: no evidence of fatty change (microvesicular steatosis)"}
    ]},
    {"compound": "CC(C)[C@H](N)C(=O)OC[C@@H]1O[C@H](n2ccc(N)nc2=O)C[C@H]1OC(=O)[C@@H](N)C(C)C", "note": "[3'5'-dival-L-dC, 3,5'-L-Valine ester of 2'-deoxy-β-L-cytidine hydrochloride]", "values": [
      {"measurement": "NOAEL at 600 h", "setting": "in vivo [6]", "value": "< 500", "unit": "mg/kg"},
      {"measurement": "half-life", "setting": "in vitro [7]", "value": "~39", "unit": "min"},
      {"measurement": "RBC, HGB and HCT lower at Day 17 compared to Day 1", "setting": "in vivo [8]", "value": "15-27%"},
      {"measurement": "decrease of BUN at Day 17 compared to Day 1", "setting": "in vivo [8]", "value": "~43", "unit": "%"},
      {"measurement": "NOAEL", "setting": "in vivo [8]; po", "value": 2000, "unit": "mg/kg"},
      {"measurement": "NOAEL at 360 h", "setting": "in vivo [9]", "value": 2000, "unit": "mg/kg"},
      {"measurement": "logD", "setting": "physchem; 0.02 m phosphate buffer, pH 7.2", "value": -0.86},
      {"measurement": "degraded", "setting": "physchem; octanol-1, pH 7.2", "value": 14, "unit": "%"},
      {"measurement": "degraded", "setting": "physchem; phosphate buffer, pH 7.2", "value": 50, "unit": "%"},
      {"measurement": "P' (B/A')", "setting": "[10]", "value": "1.80 x10^-3"},
      {"measurement": "P' (B/A')", "setting": "[10]; listed as L-dC-3',5'-divalinyl ester hydrochloride, hydrochloride", "value": "1.77 x 10^-3"},
      {"measurement": "conversion to the monoesters or L-dC during log P' experiment", "setting": "[10]; aqueous or organic phases, MilliQ water", "value": "No conversion"},
      {"measurement": "share of drug excreted in the urine (total recovered dose)", "setting": "in vivo [11]; iv", "value": "approximately 0.15%"},
      {"measurement": "share of drug excreted in the urine (total recovered dose)", "setting": "in vivo [11]; po", "value": "No dival-L-dC was detected"},
      {"measurement": "fraction unbound", "setting": "in vitro [12]", "value": 0.867},
      {"measurement": "dose excreted at 8 h", "setting": "[13]", "value": "~26", "unit": "%"},
      {"measurement": "dose excreted at 72 h", "setting": "[13]", "value": 31, "unit": "%"},
      {"measurement": "NOAEL at […]", "setting": "in vivo [14]", "value": "< 500", "unit": "mg/kg"},
      {"measurement": "Fa", "setting": "in vivo [15]", "value": "~73", "unit": "%"},
      {"measurement": "bioavailability", "setting": "in vivo [15]", "value": "72.7 ± 22", "unit": "%"}
    ]},
    {"compound": "Cc1cn([C@@H]2C[C@@H](O)[C@H](CO)O2)c(=O)[nH]c1=O", "note": "[L-dT, β-L-2'-deoxythymidine, reference compound]", "values": [
      {"measurement": "EC90", "setting": "HBV [3]; 10-fold reduction of HBV virion DNA levels, combination study", "value": "1.2 ± 0.1", "unit": "µM"},
      {"measurement": "S.I. (CC50/EC90)", "setting": "HBV [16]", "value": "2,518"}
    ]},
    {"compound": "Cc1cn([C@H]2C[C@H](N=[N+]=[N-])[C@@H](CO)O2)c(=O)[nH]c1=O", "note": "[ZDV, zidovudine]", "values": [
      {"measurement": "IC50", "setting": "in vitro [17]", "value": 1.8, "unit": "µM"},
      {"measurement": "activity", "setting": "in vitro [18]", "value": "239 ± 34", "unit": "%"},
      {"measurement": "activity at 336 h", "setting": "in vitro [18]", "value": 119, "unit": "%"},
      {"measurement": "Lipid Droplet Formation", "setting": "HepG2 cells", "value": "negative"},
      {"measurement": "increase of lactic acid production compared to vehicle control", "setting": "HepG2 cells; human", "value": 100, "unit": "%"},
      {"measurement": "IC50", "setting": "in vitro [19]", "value": 0.7, "unit": "µM"}
    ]}
  ]
}
